Data: article PMC12466456, “Isolation, Characterization, Antioxidant and Anticancer Activities of Compounds from Erythrina caffra Stem Bark Extract” (Antioxidants, 2025)
≈ marks a conversion by molar mass, not a printed value. Where two headings read alike, the source gives them in different places.

Tests used:
[1] = test system: MCF-7 cells; assay: MTT cytotoxicity assay, MCF-7; type: cell-based, human; details: for IC50: Homo sapiens
Protocol: (§1) Cytotoxicity was evaluated using the MTT (3-(4,5-dimethylthiazol-2-yl)-2,5-diphenyltetrazolium bromide) assay to measure cell viability after treatment with the plant extracts. This assay measures the percentage viability of a cell population by monitoring the ability of the NAD(P)H-dependent oxidoreductase enzyme system in live cells to reduce MTT to formazan, an insoluble purple form of the dye. […] The medium was replaced with fresh medium, and the extracts were added in varying concentrations (50–250 µg/mL). The plates were incubated at 37 °C in 5% CO2 for 48 h. At the end of the incubation period, the spent medium was discarded and replaced with 100 µL fresh medium containing 10 µL (5 mg/mL in PBS) MTT reagent. The cells were then incubated for an additional 4 h. The MTT/medium was subsequently removed, and 100 μL DMSO was added to solubilize the formazan dye product. Absorbance at 570 nm was assessed using a microplate reader (Vacutec, Hamburg, Germany). Cell viability was calculated as in Equation (2).(2) Cell viability (%)=At/Ac×100 where At = absorbance of test or treated cells and Ac = absorbance of control or untreated cells.

[2] = test system: HeLa cells; assay: MTT cytotoxicity assay, HeLa; type: cell-based, human; details: for IC50: Homo sapiens, HeLa
Protocol: as §1

[3] = test system: HEK293 cells; assay: MTT cytotoxicity assay, HEK293; type: cell-based; details: Homo sapiens
Protocol: as §1

[4] = test system: MCF-7 cells; assay: AO/EB dual staining for apoptosis, MCF-7; type: cell-based, human; details: 48 h; 250 µg/mL (method) or 100 µg/mL (Figure 3 legend)
Protocol: A qualitative assessment of apoptosis induction in cancer cells was conducted by the acridine orange-ethidium bromide (AO/EB) dual staining method, as described previously [13, 14]. Confluent cells (4.0 × 10^3 cells/well) were trypsinized and seeded into 48-well plates and incubated for 24 h at 37 °C in 5% CO2. Subsequently, the spent medium was replaced, and cells were incubated for a further 48 h with the extracts or standard drug (5-fluorouracil) at a concentration of 250 µg/mL. The cells were rinsed twice with cold PBS, and 15 µL of the AO/EB dye mixture (0.1 mg/mL: 0.1 mg/mL) was added, and the cells were incubated for 5 min at ambient temperature. The cells were washed with PBS to remove excess dye and then visualized under an Olympus fluorescence microscope (Wirsam Scientific and Precision Equipment Ltd., Johannesburg, South Africa). Images were captured using a CC12 fluorescence camera and Analysis Five Software (Olympus Soft Imaging Solutions, Olympus, Tokyo, Japan) at 200× magnification.

[5] = test system: HeLa cells; assay: Muse MultiCaspase assay, HeLa; type: cell-based, human; details: 100 µg/mL, 48 h, Figure 5a
Protocol: (§2) The multicaspase assay was performed using the Muse MultiCaspase kit, which can detect the presence of multiple caspases (caspase-1, 3, 4, 5, 6, 7, 8, and 9). The kit utilizes a derivatized VAD peptide that can detect the activity of multiple caspases and a dead cell dye that provides information on membrane integrity or cell death. Cells were seeded into 48-well plates at a density of 1.0 × 10^5 cells/well and allowed to attach over 24 h. Subsequently, 100 µg/mL of the isolated fractions were added, and the cells were incubated for 48 h. The cells were then trypsinized and reconstituted in 1 × caspase buffer. Approximately 5 μL of the Muse™ MultiCaspase working solution was added to 50 μL of cell suspension and incubated at 37 °C for 30 min. Thereafter, 150 μL of 7-AAD working solution was added, mixed thoroughly, and analyzed using the Muse™ cell analyzer (Luminex Corporation, Austin, TX, USA).

[6] = test system: MCF-7 cells; assay: Muse MultiCaspase assay, MCF-7; type: cell-based, human; details: 100 µg/mL, 48 h, Figure 5b
Protocol: as §2

[7] = DPPH radical scavenging assay; type: biochemical; details: crude extracts/ascorbic acid 50-250 µg/mL, 30 min, 517 nm
Protocol: The antioxidant potential of the crude extracts was evaluated by measuring their DPPH radical scavenging activity following the protocol described by Bukhari et al.. […] A control well containing 5% dimethyl sulfoxide (DMSO) and DPPH was run concurrently. The samples were incubated in the dark for 30 min at room temperature. The absorbance was read against a DMSO blank at a wavelength of 517 nm using a microplate reader.

[8] = MCF7, MTT, isolated compounds/fractions, read-out: IC50 MCF-7 (isolated compounds)
[9] = MTT, isolated compounds/fractions
[10] = isolated compounds/fractions, read-out: IC50 HeLa (isolated compounds)
[11] = HEK293, isolated compounds/fractions, read-out: IC50 HEK293 (isolated compounds)

SMILES	IC50 [1, 8] [µg/mL]	IC50 MCF-7 (isolated compounds) [1, 9] [µg/mL]	IC50 [2, 10] [µg/mL]	caspase activation in HeLa cells [5]	IC50 [3, 11] [µg/mL]	caspase activation in MCF-7 cells [6]	other results
O=c1[nH]cc(F)c(=O)[nH]1 [Compound 5-FU, 5-Fluorouracil, reference compound]							IC50 ([1]; MCF7, 48 h, MTT, 48 h, read-out: IC50 MCF-7 (crude extracts)): 148 µg/mL (≈ 1140 µM); IC50 ([2]; 48 h, read-out: IC50 HeLa (crude extracts)): 510 µg/mL (≈ 3920 µM); IC50 ([3]; 48 h, HEK293 served as normal cells, read-out: IC50 HEK293 (crude extracts)): 54.5 µg/mL (≈ 419 µM); AO/EB fluorescence / apoptosis in MCF-7 cells [4]: red fluorescence
CCCCCCCCCCCCCCOC(=O)/C=C/c1ccc(OC)c(O)c1 [Tetradecyl isoferulate, tetradecyl isoferulate]	124 (≈ 317 µM)	123.6174 (≈ 317 µM)	170 (≈ 435 µM)	pronounced caspase activation potential	141 (≈ 360 µM)	pronounced caspase activation potential	
CCCCCCCCCCCCCCCCCCCCCCCCCCOC(=O)/C=C/c1ccc(OC)c(O)c1 [n-Hexacosanyl isoferulate]	58.8 (≈ 105 µM)	58.84 (≈ 105 µM)	147 (≈ 262 µM)	pronounced caspase activation potential	316 (≈ 566 µM)	pronounced caspase activation potential	IC50 MCF-7 (isolated compounds) ([1]; MTT, isolated compounds/fractions, listed as n-hexacosanyl isoferulate): 58.8 µg/mL (≈ 105 µM); IC50 HeLa (isolated compounds) ([2]; isolated compounds/fractions): 146.63 µg/mL (≈ 262 µM)
O=C1O[C@H]([C@@H](O)CO)C(O)=C1O [Ascorbic acid, ascorbic acid]							IC50 DPPH radical scavenging [7]: 84.37 µg/mL (≈ 479 µM)
CCCCCCCCCCCCCCCCCCCCCO [1-Heneicosanol, 1-heneicosanol]	1980 (≈ 6330 µM)		4010 (≈ 12800 µM)		372 (≈ 1190 µM)		
